Assay results published in paper PMC10756536, “Functional expression and ligand identification of homo- and heteromeric Drosophila melanogaster CO2 receptors in the Xenopus laevis oocyte system” (PLOS ONE, 2023).

Key:
Type in all cases: cell-based
[1] = target: T1, Gr21a/Gr63a CO2 receptor (Gr63a) (Drosophila melanogaster, UniProt Q9VPT1+Q9VZL7); assay: two-electrode voltage clamp, Xenopus oocytes, block of NaHCO3 current at […]
T1 construct: with Gr21a
T1 sequence (Q9VZL7 1-512): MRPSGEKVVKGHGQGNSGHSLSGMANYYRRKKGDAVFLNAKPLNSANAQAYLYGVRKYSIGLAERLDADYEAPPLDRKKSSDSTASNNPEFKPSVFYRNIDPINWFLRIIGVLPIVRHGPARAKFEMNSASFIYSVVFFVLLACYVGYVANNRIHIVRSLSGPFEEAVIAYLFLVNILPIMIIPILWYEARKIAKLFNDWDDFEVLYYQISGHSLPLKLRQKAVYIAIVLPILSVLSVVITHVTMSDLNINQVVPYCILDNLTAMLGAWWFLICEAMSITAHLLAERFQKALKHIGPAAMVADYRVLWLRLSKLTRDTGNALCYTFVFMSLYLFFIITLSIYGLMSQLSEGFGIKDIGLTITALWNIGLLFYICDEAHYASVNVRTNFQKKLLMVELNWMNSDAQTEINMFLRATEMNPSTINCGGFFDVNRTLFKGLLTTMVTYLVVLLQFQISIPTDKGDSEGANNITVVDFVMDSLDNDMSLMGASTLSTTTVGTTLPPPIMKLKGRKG
T1 sequence (Q9VPT1 1-447): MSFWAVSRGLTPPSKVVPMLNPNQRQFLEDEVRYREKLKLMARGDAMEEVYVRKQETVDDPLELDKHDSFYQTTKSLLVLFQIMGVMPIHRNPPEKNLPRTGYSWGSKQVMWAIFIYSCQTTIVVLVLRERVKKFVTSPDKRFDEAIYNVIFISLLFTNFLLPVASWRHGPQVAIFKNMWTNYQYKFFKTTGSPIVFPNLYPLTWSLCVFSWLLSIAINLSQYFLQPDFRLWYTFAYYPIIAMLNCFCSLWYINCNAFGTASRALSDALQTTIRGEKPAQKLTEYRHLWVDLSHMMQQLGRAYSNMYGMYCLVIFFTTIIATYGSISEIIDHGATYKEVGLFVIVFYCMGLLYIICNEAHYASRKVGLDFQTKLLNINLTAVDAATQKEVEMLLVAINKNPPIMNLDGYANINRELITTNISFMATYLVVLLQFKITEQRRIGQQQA

[2] = target: T1, Gr21a/Gr63a CO2 receptor (Gr63a); assay: two-electrode voltage clamp, Xenopus oocytes, block of […] NaHCO3 current
[3] = target: T1, Gr21a/Gr63a CO2 receptor (Gr63a); assay: two-electrode voltage clamp, Xenopus oocytes, agonist current at […]; settings: read-out: % of 200 mM NHC response at 10 mM

CCCCCCO [1-hexanol]
two-electrode voltage clamp, Xenopus oocytes, block of NaHCO3 current at 10 mM [1]: Gr21/Gr63 were significantly inhibited by 1-octanol, isobutyraldehyde, 1-hexanol

CCCCCCCCO [1-octanol]
two-electrode voltage clamp, Xenopus oocytes, block of NaHCO3 current at 10 mM [1]: Gr21/Gr63 were significantly inhibited by 1-octanol, isobutyraldehyde, 1-hexanol

CC(C)=CCCC(C)CCO (stereo not drawn) [citronellol]
IC50 [2]: 5.1 ± 0.25 mM

CC(C)C=O [isobutyraldehyde]
two-electrode voltage clamp, Xenopus oocytes, block of NaHCO3 current at 10 mM [1]: Gr21/Gr63 were significantly inhibited by 1-octanol, isobutyraldehyde, 1-hexanol

COC(=O)C(C)=O [methyl pyruvate]
activation at 10000 µM [3]: 29 ± 8%

CCCCCCN [n-hexylamine]
activation at 10000 µM [3]: 64 ± 17%
